Experimental data reported in PMC9917862 (International Journal of Molecular Sciences, 2023).
“Also recorded” adds a separate entry of the source. Like-named read-outs stand apart in the source and are kept apart here.

How the values were obtained:
plasma protein = settings: cited from earlier work
physchem [1] = assay: physchem
[2] = Proton dissociation constants by UV-vis titration; format: physicochemical
Experimental: An Agilent Carry 8454 diode array spectrophotometer was used to obtain UV-vis spectra in the interval 190–1100 nm, the path length (l) was 1 cm. The spectrophotometric titrations were performed with samples containing 25–200 μM compound over the pH range 2.0–11.5 at an ionic strength of 0.10 M (KCl) and at 25 °C. Proton dissociation constants together with the individual molar absorbance spectra were calculated with the computer program PSEQUAD [52]. The program requires the following input data: measured spectra together with the corresponding pH and analytical (total) concentration of the compounds; species matrix, with approximate protonation constant(s) and the absorbing species need to be defined. The Newton–Raphson iterative method was used to obtain protonation constant(s) with standard deviations and molar spectra of the individual species.

[3] = Calculated distribution of species in different protonation states; format: physicochemical
[4] = target: T1, human serum albumin (HSA) (Homo sapiens, UniProt P02768); assay: Frontal analysis capillary electrophoresis (FACE) with HSA; format: binding
T1 construct: purchased Sigma–Aldrich A8763

[5] = target: T2, α1-acid glycoprotein (AGP) (Homo sapiens, UniProt P02763); assay: Frontal analysis capillary electrophoresis (FACE) with AGP; format: binding; settings: pH 7.4 (PBS); 25 °C
T2 construct: purchased Sigma–Aldrich G9885

[6] = tested on: α1-acid glycoprotein (AGP); settings: human
physchem [7] = settings: pH 2, thermodynamic from solid
[8] = target: T3, human serum albumin (HSA), site I (Trp-214) (Homo sapiens, UniProt P02768); assay: Steady-state fluorometry, quenching of HSA Trp-214 fluorescence; format: binding; settings: pH 7.4 (PBS), 25 °C
T3 construct: purchased Sigma–Aldrich A8763

[9] = target: T1, human serum albumin (HSA); assay: Ultrafiltration-UV-vis with HSA; format: in vitro ADME; settings: for protein bound fraction: pH 7.4 (PBS), 25 °C
[10] = Proton dissociation constants by pH-potentiometry; format: physicochemical
Experimental: pH-potentiometric titrations of the antiviral agents were carried out similarly to our former works.

[11] = target: T2, α1-acid glycoprotein (AGP); assay: Steady-state fluorometry, quenching of AGP fluorescence; format: binding; settings: for quenching of the fluorescence of AGP: pH 7.4 (PBS), 25 °C
[12] = tested on: human blood serum (HMM fraction); settings: pH 7.4
HSA + AGP = settings: human, 200 μM, pH 7.4
physchem [13] = settings: pH 2, logD2.0
[14] = target: T2, α1-acid glycoprotein (AGP); assay: Dipyridamole (DIP) displacement from AGP, fluorescence anisotropy; format: binding; settings: cAGP = 2.0 μM; cDIP = 1.0 μM; pH 7.4 (PBS); 25 °C
physchem [15] = assay: physchem; remark: listed apart in the source
HSA site I = target: T4, HSA site I (Homo sapiens, UniProt P02768); assay: Warfarin (WF) site marker displacement from HSA; format: binding; settings: HSA-WF 1:1; pH 7.4 (PBS); 25 °C
T4 construct: purchased Sigma–Aldrich A8763

[16] = Aqueous stability of FAVI and IMA followed by UV-vis spectra; format: physicochemical; settings: pH 2 and 7.4; 25 °C
human serum proteins = settings: cited from earlier work
AGP [17] = settings: pH 4.95 (acetate), 25 °C, ITC; cited from earlier work
AGP (native) = settings: cited from earlier work
HSA site II = target: T5, HSA site II (Homo sapiens, UniProt P02768); assay: Dansylglycine (DG) site marker displacement from HSA; format: binding
T5 construct: purchased Sigma–Aldrich A8763

[18] = cited from earlier work
AGP [19] = settings: cited from earlier work
AGP (F1-S) = settings: pH 7.4 (ringer), 37 °C, circular dichroism; cited from earlier work
AGP [20] = settings: pH 4.95 (acetate), 25 °C, NMR spin-lattice relaxation times; cited from earlier work
HSA (fatty acid free) = settings: pH 7; cited from earlier work
HSA = target: T6, HSA (Homo sapiens, UniProt P02768); assay: Hydrolysis of MOLNU in the presence of HSA, 1H NMR; format: in vitro ADME; settings: HSA 630 μM; 1 mM MOLNU; PBS
T6 construct: purchased Sigma–Aldrich A8763

human transferrin = target: T7, human transferrin (Homo sapiens, UniProt P02787); assay: Hydrolysis of MOLNU in the presence of transferrin, 1H NMR; format: in vitro ADME; settings: 45 μM human transferrin; same behavior = no hydrolysis as with HSA
T7 construct: purchased Sigma–Aldrich T3309

[21] = Aqueous stability of MOLNU followed by 1H NMR; format: physicochemical; settings: 25 °C; for hydrolyzed products: in 5 days
Experimental: Molnupiravir, one of the title compounds, contains an ester functional group that may hydrolyze under certain conditions. Therefore, the aqueous stability of MOLNU was investigated as a first step at pH 2.0, 7.4, and 12.0 by ^1H NMR spectroscopy.
^1H NMR spectroscopic measurements were carried out on a Bruker Avance III HD instrument (Billerica, MA, USA). The spectra were recorded with WATERGATE water suppression pulse sequence using DSS internal standard and 10% (v/v) D2O. Aqueous stability of MOLNU was followed at pH 2.0, 7.4 and 12.0.

[22] = pH 7.4, calculated from pKa values
[23] = pH 2.0, calculated from pKa values
[24] = pH 7.4, using pKa4 = 7.7 determined by Szakács et al. [48]

T3 sequence (P02768 25-609): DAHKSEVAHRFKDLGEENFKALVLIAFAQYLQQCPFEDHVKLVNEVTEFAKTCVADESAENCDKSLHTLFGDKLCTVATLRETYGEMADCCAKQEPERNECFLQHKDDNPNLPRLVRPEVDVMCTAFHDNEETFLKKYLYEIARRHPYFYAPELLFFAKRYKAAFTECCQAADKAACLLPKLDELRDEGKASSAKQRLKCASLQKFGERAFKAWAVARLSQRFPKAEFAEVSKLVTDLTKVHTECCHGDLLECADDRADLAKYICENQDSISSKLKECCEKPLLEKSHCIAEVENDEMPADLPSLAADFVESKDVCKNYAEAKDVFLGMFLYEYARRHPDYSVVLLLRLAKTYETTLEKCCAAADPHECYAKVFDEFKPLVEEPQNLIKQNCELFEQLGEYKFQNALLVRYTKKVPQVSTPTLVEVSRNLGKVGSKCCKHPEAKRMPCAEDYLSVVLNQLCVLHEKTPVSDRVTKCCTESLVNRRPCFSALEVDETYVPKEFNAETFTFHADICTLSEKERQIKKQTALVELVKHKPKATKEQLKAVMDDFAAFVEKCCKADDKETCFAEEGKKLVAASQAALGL
T1 sequence (P02768 25-609): as above
T2 sequence (P02763 19-201): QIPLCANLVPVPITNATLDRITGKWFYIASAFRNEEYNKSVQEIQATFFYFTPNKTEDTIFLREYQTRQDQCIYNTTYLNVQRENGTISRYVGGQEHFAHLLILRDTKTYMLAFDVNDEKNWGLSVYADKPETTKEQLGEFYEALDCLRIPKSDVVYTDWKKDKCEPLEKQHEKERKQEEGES
T4 sequence (P02768 25-609): as the sequence (P02768 25-609) above
T5 sequence (P02768 25-609): as above
T6 sequence (P02768 25-609): as above
T7 sequence (P02787 20-698): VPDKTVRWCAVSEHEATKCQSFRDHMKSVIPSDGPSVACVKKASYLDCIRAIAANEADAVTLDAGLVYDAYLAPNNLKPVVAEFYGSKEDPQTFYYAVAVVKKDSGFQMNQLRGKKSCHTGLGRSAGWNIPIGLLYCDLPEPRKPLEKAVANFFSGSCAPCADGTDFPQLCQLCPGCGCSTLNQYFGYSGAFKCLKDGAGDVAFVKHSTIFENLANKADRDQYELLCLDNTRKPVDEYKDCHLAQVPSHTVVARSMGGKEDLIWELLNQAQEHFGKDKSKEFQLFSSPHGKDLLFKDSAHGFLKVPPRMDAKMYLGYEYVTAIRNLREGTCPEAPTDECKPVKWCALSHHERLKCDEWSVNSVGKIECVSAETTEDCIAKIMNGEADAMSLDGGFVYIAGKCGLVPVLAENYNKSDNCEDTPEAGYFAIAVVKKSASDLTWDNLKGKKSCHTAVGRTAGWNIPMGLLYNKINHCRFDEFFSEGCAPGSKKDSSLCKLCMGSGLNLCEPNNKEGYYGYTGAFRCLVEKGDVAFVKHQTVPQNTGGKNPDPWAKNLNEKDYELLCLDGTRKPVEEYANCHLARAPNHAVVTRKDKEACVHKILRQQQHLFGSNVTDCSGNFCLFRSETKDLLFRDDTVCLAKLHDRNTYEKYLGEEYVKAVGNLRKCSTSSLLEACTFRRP

O=c1nc(NO)ccn1[C@@H]1O[C@H](CO)[C@@H](O)[C@H]1O [EIDD-1931, N(4)-hydroxycytidine]
plasma protein binding (plasma protein): No plasma protein binding was observed

NC(=O)c1nc(F)c[nH]c1=O [FAVI, favipiravir]
pKa (physchem [1]): 5.1
pKa ([2]; pKa1 (UV-vis)): 5.08
species L− [3, 22]: L^−:100%
binding to HSA in FACE ([4]; up to 5 equiv. albumin, pH 7.4 (PBS), 25 °C): neither of the two proteins are involved in binding of FAVI
binding to AGP in FACE [5]: neither of the two proteins are involved in binding of FAVI
bound fraction [6]: less than 2%
protein bound fraction ([6]; 25 μM): < 2%
protein bound fraction ([6]; 50 μM): < 2%
protein bound fraction ([6]; 100 μM): < 2%
protein bound fraction ([6]; 200 μM): < 2%
solubility thermodynamic (physchem [7]): ≥ 10 mM
quenching of HSA (Trp-214) fluorescence [8]: did not significantly quench
quenching of HSA (Trp-214) fluorescence ([8]; listed as Favipiravir): did not quench
protein bound fraction ([9]; HSA 50 μM, 50 μM compound, IMA corrected for 85% filter adhesion): < 2%
protein bound fraction ([9]; HSA 630 μM, 200 μM compound): < 2%
bound fraction ([9]; different concentrations of HSA): less than 2%
pKa ([10]; pKa1 (pHm)): 5.11
quenching of the fluorescence of AGP ([11]; 91 equiv. of compound): 6%
quenching of the fluorescence of AGP [11]: did not quench
protein bound fraction ([12]; 200 μM): 22 ± 2%
protein bound fraction (HSA + AGP): 2 ± 1%
logD at 2 h (physchem [13]): 0.15
displacement of DIP from AGP [14]: no interaction between the studied species takes place
pKa (physchem [15]): 5.17
displacement of WF from HSA site I (HSA site I): no competition
stable in aqueous media at least for [16]: ≥ 30 h
binding attributed to AGP (human serum proteins): 6.5%
binding attributed to HSA (human serum proteins): 65%

Cc1ccc(NC(=O)c2ccc(CN3CCN(C)CC3)cc2)cc1Nc1nccc(-c2cccnc2)n1 [IMA, imatinib]
pKa (physchem [1]): 7.9
pKa ([2]; I = 0.1 M (KCl), 25 °C, read-out: pKa1 (UV-vis)): 1.72
species H2L2+ [3, 23]: H2L^2+: 5%
species H3L3+ [3, 23]: 62%
species H4L4+ [3, 23]: 33%
species HL+ [3, 22]: 76%
species HL+ [3, 24]: 67%
species L [3, 24]: 33%
binding to HSA in FACE ([4]; pH 7.4): no considerable binding
K′ (AGP [17]): 8.7 × 10^2
logK′ (AGP [17]): 2.94
logK′ (AGP (native); AGP (native), pH 7.4 (ringer), 37 °C, circular dichroism): 6.38
K′ (AGP (native); pH 7.4): 2.4 × 10^6 1.7 × 10^6
displacement of DG from HSA site II (HSA site II; pH 7.4): unable to displace DG
pKa4 ([18]; pH-potentiometry, I = 0.15 M NaCl, ref 48 (Szakács et al.)): 7.7
pKa ([10]; I = 0.1 M (KCl), 25 °C, read-out: pKa2 (pHm)): 3.06
pKa ([10]; I = 0.1 M (KCl), 25 °C, read-out: pKa3 (pHm)): 3.86
pKa ([10]; I = 0.1 M (KCl), 25 °C, read-out: pKa4 (pHm)): > 7
ΔlogK′, effect of long-term storage of AGP in plastic microtubes [11]: 0.2
logK′ (AGP [19]): 6.69
logK′ (AGP (F1-S)): 6.23
stable in aqueous media at least for [16]: ≥ 30 h
logK′ (AGP [20]): 3.51
K′ (HSA (fatty acid free)): 1.2 × 10^5 1.0 × 10^5

CC(C)C(=O)OC[C@H]1O[C@@H](n2ccc(NO)nc2=O)[C@H](O)[C@@H]1O [MOLNU, molnupiravir]
pKa ([2]; pKa1 (UV-vis)): 2.11
pKa ([2]; pKa2 (UV-vis)): 10.3
species H2L+ [3, 23]: 58%
species HL [3, 23]: 42%
species HL [3, 22]: HL: 100%
solubility thermodynamic (physchem [7]): ≥ 10 mM
displacement of DG from HSA site II (HSA site II; HSA-DG 1:1, pH 7.4 (PBS), 25 °C): could not displace DG
quenching of HSA (Trp-214) fluorescence [8]: did not significantly quench
protein bound fraction ([9]; HSA 630 μM, 30 μM compound): < 2%
pKa ([10]; pKa1 (pHm)): 2.14
pKa ([10]; pKa2 (pHm)): 10.2
quenching of the fluorescence of AGP [11]: did not quench
protein bound fraction ([12]; 30 μM): less than 2%
hydrolysis of MOLNU within two days (HSA): Neither of the two media could induce hydrolysis; also recorded: could not hydrolyze the ester bond
logD at 2 h (physchem [13]): -0.68 ± 0.02
hydrolysis of MOLNU within two days (human transferrin): The same behavior was observed
hydrolyzed products ([21]; pH 2.0): 8%
hydrolyzed products ([21]; pH 7.4): 2%
time within which MOLNU hydrolyzes completely to isobutyrate and EIDD-1931 ([21]; pH 12.0, cMOLNU = 1 mM): ≤ 30 min
displacement of WF from HSA site I (HSA site I): no competition

CC(C)C(=O)O [isobutyric acid]
pKa ([18]; I = 0.1 M NaNO3): 4.67
